Our source for the EC50 values is US20120220562A1, “Anti-Viral Compounds” (ABBOTT LABAORATORIES, priority 2011, published 2012).

For the experiment, the system named is HCV 1b-Con1 replicon. Put plainly: HCV 1b-Con1 replicon assay in the presence of 5% FBS. Particulars: Hepatitis C virus. Type of experiment: cell-based. Background: In antiviral work, replicon cells carry a viral genome segment that copies itself.

For orientation: EC50 means the concentration at which the effect is half-maximal. Take `COC(=O)N[C@H](C(=O)N1CCC[C@H]1c1nc2cc([C@H]3CC[C@H](c4ccc5[nH]c([C@@H]6CCCN6C(=O)[C@@H](NC(=O)OC)C(C)C)nc5c4)N3c3ccc(OC4COCOC4)cc3)ccc2[nH]1)C(C)C` [Example 2.3, methyl {(2S)-1-[(2S)-2-{5-[(2R,5R)-1-[4-(1,3-dioxan-5-yloxy)phenyl]-5-{2-[(2S)-1-{(2S)-2-[(methoxycarbonyl)amino]-3-methylbutanoyl}pyrrolidin-2-yl]-1H-benzimidazol-5-yl}pyrrolidin-2-yl]-1H-benzimidazol-2-yl}pyrrolidin-1-yl]-3-methyl-1-oxobutan-2-yl}carbamate]: the EC50 lay within 1 to 10 nM.
As to `COC(=O)N[C@H](C(=O)N1CCC[C@H]1c1nc2cc([C@H]3CC[C@H](c4ccc5[nH]c([C@@H]6CCCN6C(=O)[C@@H](NC(=O)OC)C(C)C)nc5c4)N3c3ccc(OCC4COCO4)cc3)ccc2[nH]1)C(C)C` (stereo partly drawn) [Example 2.4, methyl {(2S)-1-[(2S)-2-{5-[(2R,5R)-1-[4-(1,3-dioxolan-4-ylmethoxy)phenyl]-5-{2-[(2S)-1-{(2S)-2-[(methoxycarbonyl)amino]-3-methylbutanoyl}pyrrolidin-2-yl]-1H-benzimidazol-5-yl}pyrrolidin-2-yl]-1H-benzimidazol-2-yl}pyrrolidin-1-yl]-3-methyl-1-oxobutan-2-yl}carbamate], the EC50 was less than 0.1 nM.
Consider `CCC1(COc2c(F)cc(N3[C@@H](c4ccc5nc([C@@H]6CCCN6C(=O)[C@@H](NC(=O)OC)C(C)C)[nH]c5c4)CC[C@@H]3c3ccc4nc([C@@H]5CCCN5C(=O)[C@@H](NC(=O)OC)C(C)C)[nH]c4c3)cc2F)COC1` [Example 2.5, methyl {(2S)-1-[(2S)-2-{6-[(2R,5R)-1-{4-[(3-ethyloxetan-3-yl)methoxy]-3,5-difluorophenyl}-5-{2-[(2S)-1-{(2S)-2-[(methoxycarbonyl)amino]-3-methylbutanoyl}pyrrolidin-2-yl]-1H-benzimidazol-6-yl}pyrrolidin-2-yl]-1H-benzimidazol-2-yl}pyrrolidin-1-yl]-3-methyl-1-oxobutan-2-yl}carbamate], for which the EC50 is less than 0.1 nM.
As to `COC(=O)N[C@H](C(=O)N1CCC[C@H]1c1nc2ccc([C@H]3CC[C@H](c4ccc5nc([C@@H]6CCCN6C(=O)[C@@H](NC(=O)OC)C(C)C)[nH]c5c4)N3c3c(F)c(F)c(N4CCCCC4)c(F)c3F)cc2[nH]1)C(C)C` [Example 2.6, methyl {(2S)-1-[(2S)-2-(6-{(2R,5R)-5-{2-[(2S)-1-{(2S)-2-[(methoxycarbonyl)amino]-3-methylbutanoyl}pyrrolidin-2-yl]-1H-benzimidazol-6-yl}-1-[2,3,5,6-tetrafluoro-4-(piperidin-1-yl)phenyl]pyrrolidin-2-yl}-1H-benzimidazol-2-yl)pyrrolidin-1-yl]-3-methyl-1-oxobutan-2-yl}carbamate], the EC50 was less than 0.1 nM.
`COC(=O)N[C@H](C(=O)N1CCC[C@H]1c1nc2ccc([C@H]3CC[C@H](c4ccc5nc([C@@H]6CCCN6C(=O)[C@@H](NC(=O)OC)C(C)C)[nH]c5c4)N3c3ccc(S(C)(=O)=O)c(F)c3)cc2[nH]1)C(C)C` [Example 2.7, methyl {(2S)-1-[(2S)-2-{6-[(2R,5R)-1-[3-fluoro-4-(methylsulfonyl)phenyl]-5-{2-[(2S)-1-{(2S)-2-[(methoxycarbonyl)amino]-3-methylbutanoyl}pyrrolidin-2-yl]-1H-benzimidazol-6-yl}pyrrolidin-2-yl]-1H-benzimidazol-2-yl}pyrrolidin-1-yl]-3-methyl-1-oxobutan-2-yl}carbamate]: the EC50 was 1 to 10 nM.
The figure for `COC(=O)N[C@H](C(=O)N1CCC[C@H]1c1nc2ccc([C@H]3CC[C@H](c4ccc5nc([C@@H]6CCCN6C(=O)[C@@H](NC(=O)OC)C(C)C)[nH]c5c4)N3c3ccc(N(C(C)=O)C(C)(C)C)c(F)c3)cc2[nH]1)C(C)C` [Example 2.8, methyl {(2S)-1-[(2S)-2-{6-[(2R,5R)-1-{4-[acetyl(tert-butyl)amino]-3-fluorophenyl}-5-{2-[(2S)-1-{(2S)-2-[(methoxycarbonyl)amino]-3-methylbutanoyl}pyrrolidin-2-yl]-1H-benzimidazol-6-yl}pyrrolidin-2-yl]-1H-benzimidazol-2-yl}pyrrolidin-1-yl]-3-methyl-1-oxobutan-2-yl}carbamate] is 0.1 to 1 nM; for `COC(=O)N[C@H](C(=O)N1CCC[C@H]1c1nc2ccc([C@H]3CC[C@H](c4ccc5nc([C@@H]6CCCN6C(=O)[C@@H](NC(=O)OC)C(C)C)[nH]c5c4)N3c3cc(F)c(N4CCC(C)CC4)c(F)c3)cc2[nH]1)C(C)C` [Example 2.9, methyl {(2S)-1-[(2S)-2-{6-[(2R,5R)-1-[3,5-difluoro-4-(4-methylpiperidin-1-yl)phenyl]-5-{2-[(2S)-1-{(2S)-2-[(methoxycarbonyl)amino]-3-methylbutanoyl}pyrrolidin-2-yl]-1H-benzimidazol-6-yl}pyrrolidin-2-yl]-1H-benzimidazol-2-yl}pyrrolidin-1-yl]-3-methyl-1-oxobutan-2-yl}carbamate] it is less than 0.1 nM; for `COC(=O)N[C@H](C(=O)N1CCC[C@H]1c1nc2ccc([C@H]3CC[C@H](c4ccc5nc([C@@H]6CCCN6C(=O)[C@@H](NC(=O)OC)C(C)C)[nH]c5c4)N3c3cc(F)c(N4CCC(CCCc5ccccc5)CC4)c(F)c3)cc2[nH]1)C(C)C` [Example 2.10, methyl {(2S)-1-[(2S)-2-{5-[(2R,5R)-1-{3,5-difluoro-4-[4-(3-phenylpropyl)piperidin-1-yl]phenyl}-5-{2-[(2S)-1-{(2S)-2-[(methoxycarbonyl)amino]-3-methylbutanoyl}pyrrolidin-2-yl]-1H-benzimidazol-5-yl}pyrrolidin-2-yl]-1H-benzimidazol-2-yl}pyrrolidin-1-yl]-3-methyl-1-oxobutan-2-yl}carbamate] it is less than 0.1 nM.
Regarding `COC(=O)N[C@H](C(=O)N1CCC[C@H]1c1nc2ccc([C@H]3CC[C@H](c4ccc5nc([C@@H]6CCCN6C(=O)[C@@H](NC(=O)OC)C(C)C)[nH]c5c4)N3c3cc(F)c(N4CCC5(CCCC5)CC4)c(F)c3)cc2[nH]1)C(C)C` [Example 2.11, methyl {(2S)-1-[(2S)-2-{5-[(2R,5R)-1-[4-(8-azaspiro[4.5]dec-8-yl)-3,5-difluorophenyl]-5-{2-[(2S)-1-{(2S)-2-[(methoxycarbonyl)amino]-3-methylbutanoyl}pyrrolidin-2-yl]-1H-benzimidazol-5-yl}pyrrolidin-2-yl]-1H-benzimidazol-2-yl}pyrrolidin-1-yl]-3-methyl-1-oxobutan-2-yl}carbamate], the EC50 is less than 0.1 nM.
The figure for `COC(=O)N[C@H](C(=O)N1CCC[C@H]1c1nc2ccc([C@H]3CC[C@H](c4ccc5nc([C@@H]6CCCN6C(=O)[C@@H](NC(=O)OC)C(C)C)[nH]c5c4)N3c3cc(F)c(N4CCC(c5ccc6ccccc6c5)CC4)c(F)c3)cc2[nH]1)C(C)C` [Example 2.12, methyl {(2S)-1-[(2S)-2-{5-[(2R,5R)-1-{3,5-difluoro-4-[4-(2-naphthyl)piperidin-1-yl]phenyl}-5-{2-[(2S)-1-{(2S)-2-[(methoxycarbonyl)amino]-3-methylbutanoyl}pyrrolidin-2-yl]-1H-benzimidazol-5-yl}pyrrolidin-2-yl]-1H-benzimidazol-2-yl}pyrrolidin-1-yl]-3-methyl-1-oxobutan-2-yl}carbamate] is less than 0.1 nM; for `COC(=O)N[C@H](C(=O)N1CCC[C@H]1c1nc2ccc([C@H]3CC[C@H](c4ccc5nc([C@@H]6CCCN6C(=O)[C@@H](NC(=O)OC)C(C)C)[nH]c5c4)N3c3cc(F)c(N4CCC(c5ccccn5)CC4)c(F)c3)cc2[nH]1)C(C)C` [Example 2.13, methyl {(2S)-1-[(2S)-2-{5-[(2R,5R)-1-{3,5-difluoro-4-[4-(pyridin-2-yl)piperidin-1-yl]phenyl}-5-{2-[(2S)-1-{(2S)-2-[(methoxycarbonyl)amino]-3-methylbutanoyl}pyrrolidin-2-yl]-1H-benzimidazol-5-yl}pyrrolidin-2-yl]-1H-benzimidazol-2-yl}pyrrolidin-1-yl]-3-methyl-1-oxobutan-2-yl}carbamate] it is less than 0.1 nM.
As to `COC(=O)N[C@H](C(=O)N1CCC[C@H]1c1nc2ccc([C@H]3CC[C@H](c4ccc5nc([C@@H]6CCCN6C(=O)[C@@H](NC(=O)OC)C(C)C)[nH]c5c4)N3c3cc(F)c(N4CCC(c5ccc([Si](C)(C)C)cc5)CC4)c(F)c3)cc2[nH]1)C(C)C` [Example 2.14, methyl {(2S)-1-[(2S)-2-{5-[(2R,5R)-1-(3,5-difluoro-4-{4-[4-(trimethylsilyl)phenyl]piperidin-1-yl}phenyl)-5-{2-[(2S)-1-{(2S)-2-[(methoxycarbonyl)amino]-3-methylbutanoyl}pyrrolidin-2-yl]-1H-benzimidazol-5-yl}pyrrolidin-2-yl]-1H-benzimidazol-2-yl}pyrrolidin-1-yl]-3-methyl-1-oxobutan-2-yl}carbamate], the EC50 is less than 0.1 nM.
For the compound `COC(=O)N[C@H](C(=O)N1CCC[C@H]1c1nc2ccc([C@H]3CC[C@H](c4ccc5nc([C@@H]6CCCN6C(=O)[C@@H](NC(=O)OC)C(C)C)[nH]c5c4)N3c3cc(F)c(N4CCC(c5cccc6ccccc56)CC4)c(F)c3)cc2[nH]1)C(C)C` [Example 2.15, methyl {(2S)-1-[(2S)-2-{5-[(2R,5R)-1-{3,5-difluoro-4-[4-(1-naphthyl)piperidin-1-yl]phenyl}-5-{2-[(2S)-1-{(2S)-2-[(methoxycarbonyl)amino]-3-methylbutanoyl}pyrrolidin-2-yl]-1H-benzimidazol-5-yl}pyrrolidin-2-yl]-1H-benzimidazol-2-yl}pyrrolidin-1-yl]-3-methyl-1-oxobutan-2-yl}carbamate], the EC50 is less than 0.1 nM.
For the compound `COC(=O)N[C@H](C(=O)N1CCC[C@H]1c1nc2cc(F)c([C@H]3CC[C@H](c4cc5[nH]c([C@@H]6CCCN6C(=O)[C@@H](NC(=O)OC)C(C)C)nc5cc4F)N3c3cc(F)c(N4CC(C)CC(C)C4)c(F)c3)cc2[nH]1)C(C)C` (stereo partly drawn) [Example 2.16, methyl {(2S)-1-[(2S)-2-{5-[(5R)-1-[4-(3,5-dimethylpiperidin-1-yl)-3,5-difluorophenyl]-5-{6-fluoro-2-[(2S)-1-{(2S)-2-[(methoxycarbonyl)amino]-3-methylbutanoyl}pyrrolidin-2-yl]-1H-benzimidazol-5-yl}pyrrolidin-2-yl]-6-fluoro-1H-benzimidazol-2-yl}pyrrolidin-1-yl]-3-methyl-1-oxobutan-2-yl}carbamate], the EC50 was less than 0.1 nM.
